Experimental data from patent US8609836B2, “4-aryl-2-anilino-pyrimidines” (Janssen Pharmaceutica NV, priority 2008, dated 2013).

What was measured:
PLK2 (h) = PLK2 (h) (Homo sapiens, UniProt Q9NYY3); assay: PLK2 human kinase inhibition, SPA; assay type: biochemical; conditions: read-out: PLK2 pIC50 (converted)
In short: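 33P incorporation into a biotinylated peptide (2 μM) was captured on streptavidin PVT beads and imaged on Leadseeker. Enzyme at 30 μg/ml, ATP 0.1 μM with 2 nM [γ-33P]ATP, Hepes pH 8.0 with MnCl2 and DTT. Incubation was 20 min at room temperature.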

MDA-MB-231 = assay: Cellular proliferation assay (Alamar blue), MDA-MB-231; assay type: cell-based; conditions: Homo sapiens, 10% FCS, 72 hours with compound, Alamar blue 24 h, read-out: MDA/MB231 (cellular proliferation assay, Table 4) (converted)
In short: (§1)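 Growth inhibition measured after 72 h incubation with compound, following 24 h pre-culture at 37° C, 5% CO2 with 10% FCS. Resazurin-based read-out at 544/590 nm after 4 h (HCT-116), 6 h (U87-MG) or 24 h (A2780, MDA-MB-231); results relative to control.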

CDK4/CyclinD1 (h) = CDK4/CyclinD1 (h) (Homo sapiens, UniProt P11802); assay: CDK4/CyclinD1 human kinase inhibition, SPA with GST-pRb substrate; assay type: biochemical; conditions: read-out: CDK4 pIC50 (converted)
In short: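 Scintillation proximity format: after EDTA/Triton stop containing glutathione SPA beads, 33P incorporation was counted. The reaction ran 60 min at room temperature in Hepes pH 7.5 with NaF, MgCl2, DTT, using 2.5 μg/ml human CDK4/CyclinD1, 40 μg/ml GST-pRb substrate and 2 nM [γ-33P]ATP.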

PLK4 (h) = PLK4 (h) (Homo sapiens, UniProt O00444); assay: PLK-4 human kinase inhibition, scintillation proximity assay (SPA); assay type: biochemical; conditions: read-out: PLK4 pIC50 (converted)
PLK1 T210D (h) = PLK1 T210D (h) (Homo sapiens, UniProt P53350, T210D); assay: PLK1 human kinase inhibition, SPA; assay type: biochemical; conditions: read-out: PLK1 pIC50 (converted)
In short: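 Kinase incubated 40 min at room temperature with 0.1 μM ATP (2 nM [γ-33P]ATP tracer), 2 μM biotinylated peptide, pH 8.0 Hepes buffer with 2 mM MnCl2 and 1 mM DTT; enzyme at 0.125 ng/ml. Stopped with EDTA; 33P-peptide bound to streptavidin scintillant beads and imaged.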

GSK3β (h) = GSK3β (h) (Homo sapiens, UniProt P49841); assay: GSK-3β human kinase inhibition, SPA; assay type: biochemical; conditions: read-out: GSK3b pIC50 (converted)
In short: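 Radiometric: 33P-labelled peptide captured on streptavidin SPA beads after EDTA stop and imaged on Leadseeker. Reaction ran 1 h at RT, 1 μM cold ATP with 2 nM [γ-33P]ATP, 1 μM biotin-peptide substrate, human GSK3β 1 μg/ml, pH 7.4 Tris buffer.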

AuroraB (h) = AuroraB (h) (Homo sapiens, UniProt Q96GD4); assay: Aurora-B human kinase inhibition, SPA; assay type: biochemical; conditions: read-out: AuroraB pIC50 (converted)
In short: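 AuroraB (0.5 μg/ml) phosphorylates 3 μM biotin-peptide using 0.5 μM ATP spiked with 33P-ATP in Hepes pH 7.5 with 3 mM MgCl2 and MnCl2, for 60 min at room temperature. EDTA stop solution carries streptavidin scintillant beads, and the captured radiolabel is imaged.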

H1299 = assay: Cellular proliferation assay (Alamar blue), H1299; assay type: cell-based; conditions: Homo sapiens, NCI-H1299; 10% FCS; 72 hours with compound; Alamar blue 4 h
In short: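 This proliferation assay on NCI-H1299 cells used an initial 24-hour compound-free incubation after seeding, followed by 72 hours of compound treatment with 10% FCS serum at 37° C. and 5% (v/v) CO2. Viable cells were quantified by a 4 h Alamar blue incubation and fluorescent plate reading at 544 nm/590 nm, and effects were expressed relative to control cells.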

HCT-116 = assay: Cellular proliferation assay (Alamar blue), HCT-116; assay type: cell-based; conditions: Homo sapiens, 10% FCS, 72 hours with compound, Alamar blue 4 h
In short: as §1

AuroraB (h), sequence (Q96GD4 whole entry): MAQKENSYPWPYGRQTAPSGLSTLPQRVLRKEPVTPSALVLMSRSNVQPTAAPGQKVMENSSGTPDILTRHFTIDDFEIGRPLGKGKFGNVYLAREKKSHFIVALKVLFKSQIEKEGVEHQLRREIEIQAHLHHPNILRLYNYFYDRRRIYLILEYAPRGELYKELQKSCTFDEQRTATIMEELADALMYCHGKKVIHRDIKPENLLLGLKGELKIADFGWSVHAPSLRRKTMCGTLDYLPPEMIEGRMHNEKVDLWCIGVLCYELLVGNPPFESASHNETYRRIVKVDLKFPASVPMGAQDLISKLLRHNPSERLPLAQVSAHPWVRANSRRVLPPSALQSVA
CDK4/CyclinD1 (h), sequence (P11802 whole entry): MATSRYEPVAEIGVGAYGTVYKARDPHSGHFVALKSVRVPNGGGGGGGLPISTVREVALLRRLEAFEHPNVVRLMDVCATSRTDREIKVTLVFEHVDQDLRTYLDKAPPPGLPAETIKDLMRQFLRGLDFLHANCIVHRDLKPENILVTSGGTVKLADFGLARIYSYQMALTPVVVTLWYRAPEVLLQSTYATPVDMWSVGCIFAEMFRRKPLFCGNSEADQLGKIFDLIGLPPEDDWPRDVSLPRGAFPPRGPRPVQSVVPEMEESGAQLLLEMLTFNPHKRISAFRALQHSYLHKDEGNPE
CDK4/CyclinD1 (h), sequence (P24385 whole entry partner): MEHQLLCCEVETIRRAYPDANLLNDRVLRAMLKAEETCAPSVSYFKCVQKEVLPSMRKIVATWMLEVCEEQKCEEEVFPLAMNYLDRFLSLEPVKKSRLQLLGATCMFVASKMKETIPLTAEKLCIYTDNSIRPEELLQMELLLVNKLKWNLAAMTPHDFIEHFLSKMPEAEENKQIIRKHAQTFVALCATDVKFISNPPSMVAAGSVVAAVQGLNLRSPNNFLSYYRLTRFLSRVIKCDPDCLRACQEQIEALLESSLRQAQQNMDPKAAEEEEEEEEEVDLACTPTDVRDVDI
GSK3β (h), sequence (P49841 whole entry): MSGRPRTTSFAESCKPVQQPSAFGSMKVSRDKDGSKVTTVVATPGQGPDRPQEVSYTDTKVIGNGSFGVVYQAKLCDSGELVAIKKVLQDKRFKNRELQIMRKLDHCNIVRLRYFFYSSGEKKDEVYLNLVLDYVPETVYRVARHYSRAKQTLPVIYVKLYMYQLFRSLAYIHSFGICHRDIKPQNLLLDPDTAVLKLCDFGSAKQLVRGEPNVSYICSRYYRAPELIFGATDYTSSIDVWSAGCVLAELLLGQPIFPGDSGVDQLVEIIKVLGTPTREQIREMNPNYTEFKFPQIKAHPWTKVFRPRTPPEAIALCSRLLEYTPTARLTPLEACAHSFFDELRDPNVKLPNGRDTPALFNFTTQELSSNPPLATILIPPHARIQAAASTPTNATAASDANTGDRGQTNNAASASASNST
PLK1 T210D (h), sequence (P53350 whole entry T210D): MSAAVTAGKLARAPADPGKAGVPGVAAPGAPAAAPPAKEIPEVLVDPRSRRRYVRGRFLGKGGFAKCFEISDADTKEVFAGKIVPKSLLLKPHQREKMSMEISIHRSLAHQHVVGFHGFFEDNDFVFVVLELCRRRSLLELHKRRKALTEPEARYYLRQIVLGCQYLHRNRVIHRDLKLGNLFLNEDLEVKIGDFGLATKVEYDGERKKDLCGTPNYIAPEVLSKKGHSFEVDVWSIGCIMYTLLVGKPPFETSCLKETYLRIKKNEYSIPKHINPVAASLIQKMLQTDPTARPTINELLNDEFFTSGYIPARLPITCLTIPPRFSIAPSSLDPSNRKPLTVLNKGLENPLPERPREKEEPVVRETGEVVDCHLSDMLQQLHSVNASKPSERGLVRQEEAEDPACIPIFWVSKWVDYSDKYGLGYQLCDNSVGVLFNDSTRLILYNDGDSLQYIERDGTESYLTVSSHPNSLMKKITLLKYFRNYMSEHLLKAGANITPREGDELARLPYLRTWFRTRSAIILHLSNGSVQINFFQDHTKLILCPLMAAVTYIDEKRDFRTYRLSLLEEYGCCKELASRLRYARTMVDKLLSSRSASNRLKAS
PLK4 (h), sequence (O00444 whole entry): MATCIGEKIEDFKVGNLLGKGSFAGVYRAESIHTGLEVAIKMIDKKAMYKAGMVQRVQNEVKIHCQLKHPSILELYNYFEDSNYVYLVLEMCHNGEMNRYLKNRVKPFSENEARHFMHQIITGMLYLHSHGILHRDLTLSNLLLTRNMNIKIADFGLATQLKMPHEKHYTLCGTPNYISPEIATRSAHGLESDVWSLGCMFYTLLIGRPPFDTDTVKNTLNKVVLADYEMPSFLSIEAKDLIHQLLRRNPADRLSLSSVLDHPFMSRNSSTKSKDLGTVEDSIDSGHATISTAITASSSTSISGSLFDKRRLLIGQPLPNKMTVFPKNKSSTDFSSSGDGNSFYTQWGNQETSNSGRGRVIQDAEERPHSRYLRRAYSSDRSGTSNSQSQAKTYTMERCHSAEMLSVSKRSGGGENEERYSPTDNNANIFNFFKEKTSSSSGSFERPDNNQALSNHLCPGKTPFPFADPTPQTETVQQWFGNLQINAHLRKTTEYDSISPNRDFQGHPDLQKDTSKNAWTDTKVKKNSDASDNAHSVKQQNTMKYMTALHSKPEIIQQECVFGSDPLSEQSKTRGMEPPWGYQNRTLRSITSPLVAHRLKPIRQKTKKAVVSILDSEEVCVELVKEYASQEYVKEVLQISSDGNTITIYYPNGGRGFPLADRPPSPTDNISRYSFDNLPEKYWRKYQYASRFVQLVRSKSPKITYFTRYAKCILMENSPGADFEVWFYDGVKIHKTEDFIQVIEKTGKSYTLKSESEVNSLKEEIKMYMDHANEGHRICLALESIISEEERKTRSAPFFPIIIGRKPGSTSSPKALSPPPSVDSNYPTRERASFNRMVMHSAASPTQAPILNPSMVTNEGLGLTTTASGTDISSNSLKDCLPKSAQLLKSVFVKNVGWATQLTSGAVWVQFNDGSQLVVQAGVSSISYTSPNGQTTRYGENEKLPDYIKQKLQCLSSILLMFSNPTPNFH
PLK2 (h), sequence (Q9NYY3 whole entry): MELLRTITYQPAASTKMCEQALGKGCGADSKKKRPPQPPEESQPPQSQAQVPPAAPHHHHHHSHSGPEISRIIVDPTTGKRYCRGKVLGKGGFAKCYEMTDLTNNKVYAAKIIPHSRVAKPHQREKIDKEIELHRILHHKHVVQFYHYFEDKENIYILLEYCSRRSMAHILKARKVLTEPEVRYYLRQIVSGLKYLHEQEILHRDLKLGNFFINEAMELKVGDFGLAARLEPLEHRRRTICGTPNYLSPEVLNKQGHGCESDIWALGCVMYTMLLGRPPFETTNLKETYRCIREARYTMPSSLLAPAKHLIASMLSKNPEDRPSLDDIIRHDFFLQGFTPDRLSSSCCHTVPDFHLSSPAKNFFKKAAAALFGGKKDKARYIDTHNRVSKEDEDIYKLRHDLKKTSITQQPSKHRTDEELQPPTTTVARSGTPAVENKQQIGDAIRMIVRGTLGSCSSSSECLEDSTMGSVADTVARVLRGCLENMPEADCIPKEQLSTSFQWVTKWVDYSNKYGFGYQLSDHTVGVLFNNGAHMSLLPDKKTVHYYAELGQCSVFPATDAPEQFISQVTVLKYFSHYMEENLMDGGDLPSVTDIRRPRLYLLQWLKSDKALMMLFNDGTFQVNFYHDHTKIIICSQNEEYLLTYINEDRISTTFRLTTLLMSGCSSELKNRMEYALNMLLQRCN

IC50 (PLK2 (h)) | IC50 (MDA-MB-231) | IC50 (CDK4/CyclinD1 (h)) | IC50 (PLK4 (h)) | IC50 (PLK1 T210D (h)) | IC50 (GSK3β (h)) | IC50 (AuroraB (h)) | IC50 (H1299) | IC50 (HCT-116) | SMILES
> 10000 nM | 1700 nM | 2750 nM | 69.2 nM | > 10000 nM | 30.9 nM | 10200 nM | 2750 nM | 174 nM | O=C1NCc2cccc(c2)-c2ccnc(n2)Nc2cc(CN3CCOCC3)cc(c2)CN2CCC[C@@H]12 [Compound 22]
> 10000 nM | 2090 nM | 1230 nM | 162 nM | > 10000 nM | 112 nM | > 10000 nM | 3800 nM | 646 nM | O=C1NCc2cccc(c2)-c2ccnc(n2)Nc2cc(CNC3CCOCC3)cc(c2)CN2CCC[C@@H]12 [Compound 29]
> 10000 nM | 257 nM | 891 nM | 162 nM | > 10000 nM | 24 nM | > 10000 nM | 191 nM | 107 nM | CN(C)Cc1cc2cc(c1)Nc1nccc(n1)-c1cccc(c1)CNC(=O)[C@@H]1CCCN1C2 [Compound 30]
> 10000 nM | 1550 nM | 1000 nM | 166 nM | > 10000 nM | 110 nM | > 10000 nM | 1780 nM | 1020 nM | CN(C)CCNCc1cc2cc(c1)Nc1nccc(n1)-c1cccc(c1)CNC(=O)[C@@H]1CCCN1C2 [Compound 31]
> 10000 nM | 832 nM | 1260 nM | 178 nM | > 10000 nM | 145 nM | 8320 nM | 1100 nM | 126 nM | COCCNCc1cc2cc(c1)Nc1nccc(n1)-c1cccc(c1)CNC(=O)[C@@H]1CCCN1C2 [Compound 33]
> 10000 nM | 1820 nM | 1200 nM | 219 nM | > 10000 nM | 129 nM | 8130 nM | 3390 nM | 372 nM | O=C1NCc2cccc(c2)-c2ccnc(n2)Nc2cc(CNC3CCCCC3)cc(c2)CN2CCC[C@@H]12 [Compound 36]
> 10000 nM | > 10000 nM | 5620 nM | 347 nM | > 10000 nM | 263 nM | > 10000 nM | > 10000 nM | 3890 nM | O=C(NC1CCCCC1)c1ccc2cc1CN1CCC[C@H]1C(=O)NCc1cccc(c1)-c1ccnc(n1)N2 [Compound 41]
> 10000 nM | > 10000 nM | 5750 nM | 427 nM | > 10000 nM | 204 nM | > 10000 nM | > 10000 nM | 2240 nM | O=C(NC1CCOCC1)c1ccc2cc1CN1CCC[C@H]1C(=O)NCc1cccc(c1)-c1ccnc(n1)N2 [Compound 46]

Second part, the compound before the results:

SMILES | IC50 (PLK2 (h)) | IC50 (MDA-MB-231) | IC50 (CDK4/CyclinD1 (h)) | IC50 (PLK4 (h)) | IC50 (PLK1 T210D (h)) | IC50 (GSK3β (h)) | IC50 (AuroraB (h)) | IC50 (H1299) | IC50 (HCT-116)
O=C1NCc2cccc(c2)-c2ccnc(n2)Nc2ccc(N3CCOCC3)c(c2)CN2CCC[C@@H]12 [Compound 1] | > 10000 nM | > 10000 nM | 2140 nM | 47.9 nM | > 10000 nM | 724 nM | 4370 nM | 6920 nM | 3800 nM
COc1ccc2cc1CN1CCC(CC1)C(=O)N(C)CCN(C)c1ccc(cn1)-c1ccnc(n1)N2 [Compound 4] | > 10000 nM | > 10000 nM | 1910 nM | 2400 nM | > 10000 nM | 3630 nM | > 10000 nM | > 10000 nM | 5250 nM
C[C@@H]1NCc2cc(ccc2N2CCOCC2)Nc2nccc(n2)-c2ccc(cc2)OCCCNC1=O [Compound 5] | > 10000 nM | > 10000 nM | 1290 nM | 162 nM | > 10000 nM | 135 nM | > 10000 nM | > 10000 nM | 1740 nM
O=C1NCCOc2ccc(cc2)-c2ccnc(n2)Nc2ccc(N3CCOCC3)c(c2)CN2CCC1CC2 [Compound 6] | > 10000 nM | 363 nM | 562 nM | 316 nM | > 10000 nM | 741 nM | 1660 nM | 380 nM | 105 nM
O=C1NCCCOc2ccc(cc2)-c2ccnc(n2)Nc2ccc(N3CCOCC3)c(c2)CN2CCC[C@@H]12 [Compound 7] | > 10000 nM | > 10000 nM | 6460 nM | 316 nM | > 10000 nM | 372 nM | 6310 nM | > 10000 nM | 6030 nM
O=C1CN2CCN(CC2)Cc2cc(ccc2N2CCOCC2)Nc2nccc(n2)-c2ccc(cc2)OCCN1 [Compound 9] | > 10000 nM | > 10000 nM | 7940 nM | 417 nM | > 10000 nM | 1450 nM | > 10000 nM | > 10000 nM | 7760 nM
CN1CCCNC(=O)[C@H](CO)NCc2cc(cc(N3CCOCC3)c2)Nc2nccc(n2)-c2ccc(cc2)C1 [Compound 10] | > 10000 nM | > 10000 nM | > 10000 nM | 513 nM | > 10000 nM | ~10000 nM | 9330 nM | > 10000 nM | > 10000 nM
COc1ccc2cc1CN1CCN(CC1)CC(=O)N(C)CCN(C)c1ccc(cn1)-c1ccnc(n1)N2 [Compound 14] | > 10000 nM | > 10000 nM | > 10000 nM | 1350 nM | > 10000 nM | 4900 nM | > 10000 nM | > 10000 nM | 5890 nM
CN1CCCNC(=O)[C@@H]2CCCN2Cc2cc(cc(N3CCOCC3)c2)Nc2nccc(n2)-c2ccc(cc2)C1 [Compound 16] | > 10000 nM | > 10000 nM | > 10000 nM | 617 nM | > 10000 nM | > 10000 nM | > 10000 nM | > 10000 nM | > 10000 nM
O=C1NCCCc2cc(ccn2)-c2ccnc(n2)Nc2cccc(c2)CN[C@H]1CO [Compound 19] | > 10000 nM | 6170 nM | 1260 nM | 1200 nM | > 10000 nM | 37.2 nM | > 10000 nM | – | 724 nM
O=C1CN2CCN(CC2)Cc2cccc(c2)Nc2nccc(n2)-c2ccnc(c2)CCCN1 [Compound 21] | > 10000 nM | > 10000 nM | 1290 nM | 4270 nM | > 10000 nM | 16.6 nM | > 10000 nM | – | 2290 nM
CN(C)C(=O)c1ccc2cc1CN1CCC[C@H]1C(=O)NCc1cccc(c1)-c1ccnc(n1)N2 [Compound 24] | > 10000 nM | > 10000 nM | 4270 nM | 77.6 nM | > 10000 nM | 87.1 nM | > 10000 nM | > 10000 nM | 3800 nM
COCCNC(=O)c1ccc2cc1CN1CCC[C@H]1C(=O)NCc1cccc(c1)-c1ccnc(n1)N2 [Compound 40] | > 10000 nM | > 10000 nM | 1620 nM | 288 nM | > 10000 nM | 162 nM | > 10000 nM | > 10000 nM | 2190 nM
CN(C)CCNC(=O)c1ccc2cc1CN1CCC[C@H]1C(=O)NCc1cccc(c1)-c1ccnc(n1)N2 [Compound 42] | > 10000 nM | 1910 nM | 457 nM | 355 nM | > 10000 nM | 331 nM | > 10000 nM | 3390 nM | 955 nM
